Measurements as given in patent publication US8148538B2, “N-alkyl-heterocyclyl carboxamide derivatives” (Bayer Cropscience AG, priority 2005, dated 2012).

What was measured:
Alternaria brassicae = assay: In vivo test on Alternaria brassicae (leaf spot of crucifers), preventive spray on radish plants; details: under these conditions (radish plants, comparison compound of prior art)
Description: The active ingredient tested is prepared by homogenisation in DMSO (5% of the final volume), acetone (10% of the final volume) and tween 80 10% (5 μl/mg active ingredient). Radish plants (Pernot variety) in starter cups, sown on a 50/50 peat soil-pozzolana substrate and grown at 18-20° C., are treated at the cotyledon stage by spraying with the aqueous suspension described above. Plants, used as controls, are treated with an aqueous solution not containing the active material. After 24 hours, the plants are contaminated by spraying them with an aqueous suspension of Alternaria brassicae spores (40,000 spores per cm^3). The spores are collected from a 12 to 13 days-old culture. The contaminated radish plants are incubated for 6-7 days at about 18° C., under a humid atmosphere. Grading is carried out 6 to 7 days after the contamination, in comparison with the control plants. Under these conditions, good (at least 70%) or total protection is observed at a dose of 500 ppm with the following compounds: 1-2, 2-2, 2-5, 3-2, 3-5, 4-3, 4-4, 4-5, 4-6, 5-4, 5-5, 5-7, 6-1, 7-1, 7-3, 7-4, 7-6, 9-3, 10-3, 10-4, 5, 10-6, 10-8, 11-1, 11-2, 12-2, 13-1, 13-3, 13-5, 15-2, 15-3, 16-4, 19-1, 20-1, 21-1, 21-2, 22-2, 22-3, 23-1, 24-1, 24-2, 25-1, 25-3, 26-2, 27-1, 28-2, 30-1, 30-2, 31-1, 32-1 and 33-2.

Botrytis cinerea = assay: In vivo test on Botrytis cinerea (cucumber grey mould), preventive spray on cucumber plants; details: under these conditions (cucumber plants, comparison compounds of prior art)
Description: (§1) The active ingredient tested is prepared by homogenisation in DMSO (5% of the final volume), acetone (10% of the final volume) and tween 80 10% (5 μl/mg active ingredient).
(§2) Cucumber plants (Marketer variety) in starter cups, sown on a 50/50 peat soil-pozzolana substrate and grown at 18-20° C., are treated at the cotyledon Z11 stage by spraying with the aqueous suspension described above. Plants, used as controls, are treated with an aqueous solution not containing the active material.
After 24 hours, the plants are contaminated by depositing drops of an aqueous suspension of Botrytis cinerea spores (150,000 spores per ml) on upper surface of the leaves. The spores are collected from a 15-day-old culture and are suspended in a nutrient solution composed of: • 20 g/L of gelatin • 50 g/L of cane sugar • 2 g/L of NH4NO3 • 1 g/L of KH2PO4
The contaminated cucumber plants are settled for 5/7 days in a climatic room at 15-11° C. (day/night) and at 80% relative humidity.

Sphaerotheca fuliginea = assay: In vivo test on Sphaerotheca fuliginea (powdery mildew), preventive spray on gherkin plants; details: under these conditions (gherkin plants, comparison compounds of prior art)
Description: as §1
as §2, with “Gherkin” for “Cucumber”, “(Vert petit de Paris” for “(Marketer”, “20° C./23°” for “18-20°”, “at” for “at the”
After 24 hours, the plants are contaminated by spraying them with an aqueous suspension of Sphaerotheca fuliginea spores (100 000 spores per ml). The spores are collected from a contaminated plants. The contaminated gerkhin plants are incubated at about 20° C./25° C. and at 60/70% relative humidity.

Pyrenophora teres = assay: In vivo test on Pyrenophora teres (barley net blotch), preventive spray on barley plants; details: under these conditions (barley plants, comparison compound of prior art)
Description: as §1
as §2, with “Barley” for “Cucumber”, “(Express” for “(Marketer”, “12°” for “18-20°”, “1-leaf” for “cotyledon Z11”, “stage (10 cm tall)” for “stage”
After 24 hours, the plants are contaminated by spraying them with an aqueous suspension of Pyrenophora teres spores (12,000 spores per ml). The spores are collected from a 12-day-old culture. The contaminated barley plants are incubated for 24 hours at about 20° C. and at 100% relative humidity, and then for 12 days at 80% relative humidity.

SMILES | activity against Alternaria brassicae (Alternaria brassicae) | activity against Botrytis cinerea (Botrytis cinerea) | activity against Sphaerotheca fuliginea (Sphaerotheca fuliginea) | activity against Pyrenophora teres (Pyrenophora teres)
CCCCCCCCNC(=O)c1snc(Cl)c1Cl [4-dichloro-N-octylisothiazol-5-carboxamide] | did not show any activity | did not show any activity | – | –
Cc1nnsc1C(=O)NC(C)C [N-isopropyl-4-methyl-1,2,3-thiadiazole-5-carboxamide] | – | did not show any activity | did not show any activity | –
CCC(C)NC(=O)c1cc(C)oc1C (stereo not shown) [N-sec-butyl-2,5-dimethyl-3-furamide] | – | did not show any activity | did not show any activity | did not show any activity
